# Reference: US20220031800A1, “PEPTIDES FOR TREATING NON-EXUDATIVE MACULAR DEGENERATION AND OTHER DISORDERS OF THE EYE” (Allegro Pharmaceuticals, LLC, priority 2019, published 2022)
# Square brackets hold non-standard residues; d marks the D form. Peptide text beside a SMILES is read from it. Cya = N[C@@H](CS(=O)(=O)O)C(=O)O
# What was measured:
# OIR mouse retina = assay: RNA-seq gene expression in OIR mouse retina after intravitreal injection; type: in vivo; settings: 10 μg/1 μL single intravitreal injection
# Description: Purpose: This study used RNA-seq to identify the genes regulated in the mouse retina following risuteganib intravitreal injection. Analysis of the specific genes regulated by risuteganib enables identification of biological processes and pathways modulated by the oligopeptide. […] Risuteganib causes reduced leukocyte attachment, reduced leukocyte trans-endothelial migration and reduced expression of complement 3 receptor. Methods: OIR mouse pups received 5 days of hyperoxia (75% O2) to obliterate developing retinal vessels. Following their return to room air, retinal neovascularization develops due to an imbalance in oxygen supply and demand. At the time of return to room air, both eyes of OIR pups received either vehicle injection or a single intravitreal injection of risuteganib solution at concentration of 10 μg/1 μL. A separate group of pups raised at room air served as control and received either vehicle or risuteganib solution injection consistent with the OIR mouse group. 5 days after injection, at the height of retinal neovascularization in OIR mice, all mice are sacrificed, retina tissue extracted for RNA isolation and RNA-seq. The generated reads were then aligned to the mouse reference genome/transcriptome and gene expression quantified for differential expression analysis and fold change calculation. The list of regulated genes was then submitted to identify biological processes and pathways that are regulated after risuteganib exposure compared to vehicle control in OIR mice or control mice, and in OIR retina compared to control retina that both received vehicle injections.
# [1] = test system: primary mouse Müller cells; assay: Trypan blue viability of primary mouse Müller cells exposed to kainic acid; type: cell-based, CD1 mice; settings: 1.0 mg/mL risuteganib alone
# Description: Purpose: Investigate neuroprotective properties of risuteganib in primary mouse Müller cells exposed to kainic acid, a neuroexcitatory compound that activates glutamate receptors, resulting in overstimulation and cell death. Retinal Müller cells support normal functions of neurons and their dysregulation can leads to loss of homeostasis and neuronal cell death.
# Methods: Fresh retina were collected from CD1 mice and then mechanically dissociated with sterile Pasteur pipette into small aggregates and seeded into 35 mm culture dishes. All cultures were first left unchanged for 5-6 days and then replenished every 3-4 days. When the cell growth had reached around 80% confluency, retinal aggregates and debris were removed by media washes to form a purified cell monolayer. Cells were then exposed to the experimental conditions: (1) untreated control, (2) 1.0 mg/mL risuteganib, (3) 500 μM kainic acid (KA), and (4) 1.0 mg/mL risuteganib for 24 hours before 500 μM kainic acid exposure. 48 hours after kainic acid treatment, dead and live cell numbers were measured using Trypan blue exclusion assay on a hemocytometer.
# [2] = test system: human retinal Müller cells (MIO-M1); assay: Reactive oxygen species level in human Müller cells (MIO-M1); type: cell-based; settings: 1× concentration (clinical dose), 24 hours
# Experimental: Purpose: To determine the effects of risuteganib and anti-VEGF drugs on reactive oxygen species (ROS) levels in cultured human retinal Müller cells (MIO-M1). Elevated ROS levels can disrupt normal cellular functions, leading to reduced cell health and possible cell death.
# Methods: The immortalized human retinal Müller cell line (MIO-M1) was obtained from the Department of Cell Biology of the University College, London. Cells were cultured in Dulbecco's Modified Eagle's Medium (DMEM) and plated in 24-well plates for 24 hours before treatment with 1× concentration of 1 mg/50 μL ALG-1001, ranibizumab, bevacizumab, or aflibercept. Dosage was based on clinical dose of each compound. The experiments were repeated 3 times with 6 replicates each. After 24 hours drug treatment, ROS level was measured using the fluorescent dye 2′,7′-dichlorodihydrofluorescein diacetate. The signals were read using the Biotek Synergy HT plate reader with EX filter in 482 nm and EM filter in 520 nm. Results were normalized to untreated control as 100%. Statistical analysis was performed in GraphPad Prism software program.
# [3] = test system: human retinal Müller cells (MIO-M1); assay: Mitochondrial membrane potential (JC-1) in human Müller cells (MIO-M1); type: cell-based; settings: 1× of 1 mg/50 μL, 24 hours; normalized to untreated control as 100%
# Experimental: Purpose: To determine the effects of risuteganib on the mitochondrial membrane potential (ΔΨm) in cultured human retinal Müller cells (MIO-M1). Loss of ΔΨm is a marker for early cell death.
# Methods: The immortalized human retinal Müller cell line (MIO-M1) was obtained from the Department of Cell Biology of the University College, London. Cells were cultured in Dulbecco's Modified Eagle's Medium (DMEM) and plated in 24-well plates for 24 hours before treatment with 1× concentration of 1 mg/50 μL risuteganib, ranibizumab, bevacizumab, or aflibercept. Dosage was based on clinical dose of each compound. The experiments were repeated 3 times with 6 replicates each. After 24 hours drug treatment, the ΔΨm was measured using the JC-1 kit, a cationic dye that fluoresces red within the mitochondria of healthy, live cells. In the stressed or apoptotic cells, the mitochondrial membrane potential collapses and the cationic dye fluoresces green. First, cells were rinsed with fresh media and then incubated with the JC-1 reagent for 15 minutes at 37 degrees C. The dyes were then removed, and phosphate buffered saline was added to each well. The Red fluorescence (live cells) was read at EX 550 nm and EM 600 nm. The Green fluorescence (apoptotic cells) was read at EX 483 nm and EM 535 nm. The changes in ΔΨm were calculated by the ratio of red to green fluorescence. […]
# primary human RPE cells = assay: ROS level (CM-H2DCFDA) in primary human RPE cells exposed to hydroquinone; type: cell-based; settings: 0.4 mM risuteganib co-treatment with HQ 125-180 uM
# Experimental: Purpose: To determine if risuteganib protects against hydroquinone (HQ)-mediated cell injury, elevated ROS level and reduced mitochondrial membrane potential (Δψm) in cultured human RPE cells. Elevated ROS levels increase oxidative stress in the cells, leading to reduced cell health and cell death. Loss of ΔΨm is a marker for early cell death. Methods: Primary human RPE cells were seeded on collagen-coated 96-well plates in triplicates at 8K, 10K and […] cells/well, respectively. Cells reached 80% to 100% confluence 24 hours after plating, and confluent cells were then grown for an additional 4 or 5 days until growth was density arrested. On day 6 after plating, cells in the plate upper half were loaded with 20 μM CM-H2DCFDA (measures ROS level) and in the plate lower half with 10 μM JC-1 (measures Δψm) for 30 minutes at 37° C. […] For the ROS and Δψm assays, a fluorescence plate reader was used to quantify ROS production (490-nm excitation, 522-nm emission), and green monomer of JC-1 (490-nm excitation, 522-nm emission) and red JC-1 aggregate (535-nm excitation, 590-nm emission), respectively. […] The WST reagent was quantified with a plate reader at 440 nm and a reference wavelength at 690 nm. Data were normalized to untreated control as 100% and were expressed as the mean±SD.
structure (smiles),measurement,setting,value
"C[C@@H](O)[C@H](NC(=O)[C@H](CS(=O)(=O)O)NC(=O)CNC(=O)[C@H](CCCNC(=N)N)NC(=O)CN)C(=O)N1CCC[C@H]1C(=O)O [risuteganib, Glycyl-L-arginylglycyl-3-sulfo-L-alanyl-L-threonyl-L-proline] (H-GRG[Cya]TP-OH)",Number of genes regulated in the OIR retina with statistical significance,"OIR mouse retina; 5 days after injection, vs vehicle",around 600 genes
same,"Expression of integrin subunits α5, α6, αM, β1, β2, and β5","OIR mouse retina; OIR retina, 5 days after injection",down regulated
same,Number of biological pathways down-regulated,"OIR mouse retina; OIR retina, 10 of them up-regulated in OIR retina",11
same,"Change in cell viability, treatment alone",[1],did not induce detectable change in cell viability
same,Change in ROS level compared to untreated control,[2],−19%
same,"Mitochondrial membrane potential (ΔΨm, red/green JC-1 ratio)",[3],109.3±4.91
same,Reduction of HQ-induced ROS production,primary human RPE cells,61%
